Results from US10294202B2, “Pyrrolidinones as herbicides” (FMC Corporation, priority 2013, dated 2019).

Legend:
ryegrass, Italian = test: Test C pre-/postemergence herbicide test; assay type: in vivo, Lolium multiflorum
Summary of the method: (§1)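 Two application timings ran in parallel with identically formulated test chemicals (non-phytotoxic solvent, surfactant included): spray on seeded loam–sand soil, and spray on emerged plants 2 to 18 cm high. Evaluation at 13 to 15 days compared each species with controls, rated from 0 up to 100.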

barnyardgrass = test: Test A pre-/postemergence herbicide test; assay type: in vivo, Echinochloa crus-galli; details: for Plant response rating, Barnyardgrass: 0 to 100 scale
Summary of the method: (§2)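 Directed soil spray to seeded pots (preemergence) or spray onto one- to two-leaf seedlings 2–10 cm tall (postemergence); loam/sand substrate throughout. Evaluated visually after about 10 days against untreated plants, 0 = no effect, 100 = complete control.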

corn [1] = test: Test A pre-/postemergence herbicide test; assay type: in vivo, Zea mays; details: Postemergence
Summary of the method: as §2

corn [2] = test: Test C pre-/postemergence herbicide test; assay type: in vivo, Zea mays
Summary of the method: as §1

galium = test: Test C pre-/postemergence herbicide test; assay type: in vivo, Galium aparine
Summary of the method: as §1

wheat (winter wheat) = test: Test C pre-/postemergence herbicide test; assay type: in vivo, Triticum aestivum
Summary of the method: as §1

crabgrass, large = test: Test C pre-/postemergence herbicide test; assay type: in vivo, Digitaria sanguinalis
Summary of the method: as §1

pigweed = test: Test A pre-/postemergence herbicide test; assay type: in vivo, Amaranthus retroflexus; details: for Plant response rating, Pigweed: 0 to 100 scale
Summary of the method: as §2

wheat = test: Test A pre-/postemergence herbicide test; assay type: in vivo, Triticum aestivum; details: Postemergence
Summary of the method: as §2

soybean = test: Test C pre-/postemergence herbicide test; assay type: in vivo, Glycine max
Summary of the method: as §1

morningglory = test: Test C pre-/postemergence herbicide test; assay type: in vivo, Ipomoea coccinea
Summary of the method: as §1

johnsongrass = test: Test C pre-/postemergence herbicide test; assay type: in vivo, Sorghum halepense
Summary of the method: as §1

foxtail, giant = test: Test C pre-/postemergence herbicide test; assay type: in vivo, Setaria faberii
Summary of the method: as §1

[3] = Postemergence, 31 g ai/ha, scale 0 to 100 (0 no effect, 100 complete control)
[4] = Postemergence, 62 g ai/ha, scale 0 (no effect) to 100 (complete control)
[5] = Postemergence, 125 g ai/ha, scale 0 to 100 (0 no effect, 100 complete control)
[6] = Postemergence, 250 g ai/ha, scale 0 to 100 (0 no effect, 100 complete control)
[7] = Preemergence, 31 g ai/ha, scale 0 to 100, 0 is no effect and 100 is complete control
[8] = Preemergence, 62 g ai/ha, scale 0 to 100 (0 no effect, 100 complete control)
[9] = Preemergence, 125 g ai/ha, scale 0 to 100 (0 no effect, 100 complete control)
[10] = 125 g ai/ha, visual rating, 0 no effect, 100 complete control, approximately 10 days, preemergence
[11] = Postemergence, 125 g ai/ha, 0 is no effect, 100 is complete control
[12] = preemergence, 500 g ai/ha, 0 is no effect and 100 is complete control
[13] = 125 g ai/ha, 0 to 100 scale, 0 is no effect, 100 is complete control

O=C1NCC(c2cccc(C(F)(F)F)c2)C1C(=O)Nc1ccc(F)cc1F (racemic) [Compound 207]
Plant response rating, Ryegrass, Italian (ryegrass, Italian; [3]): 0 | Plant response rating, Ryegrass, Italian (ryegrass, Italian; [4]): 0 | Plant response rating, Ryegrass, Italian (ryegrass, Italian; [5]): 0 | Plant response rating, Ryegrass, Italian (ryegrass, Italian; [6]): 0 | Ryegrass, Italian plant response rating (ryegrass, Italian; [7]): 0 | Ryegrass, Italian plant response rating (ryegrass, Italian; [8]): 0 | Plant response rating, Ryegrass, Italian (ryegrass, Italian; [9]): 0 | Plant response rating (scale of 0 to 100), Ryegrass, Italian (ryegrass, Italian; Preemergence, 250 g ai/ha): 0 | Plant response rating, Barnyardgrass (barnyardgrass; [10]): 90 | Plant response rating, Barnyardgrass (barnyardgrass; [11]): 80 | Barnyardgrass plant response rating (0 to 100 scale, 0 is no effect, 100 is complete control) (barnyardgrass; Postemergence, 500 g ai/ha): 90 | Plant response rating, Barnyardgrass (barnyardgrass; [12]): 90 | Plant response rating, Corn (corn [1]; [13]): 50 | Corn plant response rating (0 to 100 scale, 0 is no effect, 100 is complete control) (corn [1]; 500 g ai/ha): 70 | Plant response rating, Corn (corn [2]; [3]): 0 | Plant response rating, Corn (corn [2]; [4]): 0 | Plant response rating, Corn (corn [2]; [5]): 0 | Plant response rating, Corn (corn [2]; [6]): 5 | Corn plant response rating (corn [2]; [7]): 0 | Corn plant response rating (corn [2]; [8]): 0 | Plant response rating, Corn (corn [2]; [9]): 55 | Plant response rating (scale of 0 to 100), Corn (corn [2]; Preemergence, 250 g ai/ha): 30 | Plant response rating, Galium (galium; [3]): 0 | Plant response rating, Galium (galium; [4]): 0 | Plant response rating, Galium (galium; [5]): 0 | Plant response rating, Galium (galium; [6]): 50 | Galium plant response rating (galium; [7]): 0 | Galium plant response rating (galium; [8]): 0 | Plant response rating, Galium (galium; [9]): 85 | Plant response rating (scale of 0 to 100), Galium (galium; Preemergence, 250 g ai/ha): 90 | Plant response rating, Wheat (wheat (winter wheat); [3]): 0 | Plant response rating, Wheat (wheat (winter wheat); [4]): 0 | Plant response rating, Wheat (wheat (winter wheat); [5]): 0 | Plant response rating, Wheat (wheat (winter wheat); [6]): 0 | Wheat plant response rating (wheat (winter wheat); [7]): 0 | Wheat plant response rating (wheat (winter wheat); [8]): 0 | Plant response rating, Wheat (wheat (winter wheat); [9]): 5 | Plant response rating (scale of 0 to 100), Wheat (wheat (winter wheat); Preemergence, 250 g ai/ha): 45 | Plant response rating, Crabgrass, Large (crabgrass, large; [3]): 10 | Plant response rating, Crabgrass, Large (crabgrass, large; [4]): 15 | Plant response rating, Crabgrass, Large (crabgrass, large; [5]): 40 | Plant response rating, Crabgrass, Large (crabgrass, large; [6]): 65 | Crabgrass, Large plant response rating (crabgrass, large; [7]): 90 | Crabgrass, Large plant response rating (crabgrass, large; [8]): 90 | Plant response rating, Crabgrass, Large (crabgrass, large; [9]): 95 | Plant response rating (scale of 0 to 100), Crabgrass, Large (crabgrass, large; Preemergence, 250 g ai/ha): 95 | Plant response rating, Pigweed (pigweed; [10]): 0 | Plant response rating, Pigweed (pigweed; [11]): 0 | Pigweed plant response rating (0 to 100 scale, 0 is no effect, 100 is complete control) (pigweed; Postemergence, 500 g ai/ha): 0 | Plant response rating, Pigweed (pigweed; [12]): 20 | Plant response rating, Wheat (wheat; [13]): 0 | Wheat plant response rating (0 to 100 scale, 0 is no effect, 100 is complete control) (wheat; 500 g ai/ha): 60 | Plant response rating, Soybean (soybean; [3]): 0 | Plant response rating, Soybean (soybean; [4]): 5 | Plant response rating, Soybean (soybean; [5]): 5 | Plant response rating, Soybean (soybean; [6]): 5 | Soybean plant response rating (soybean; [7]): 0 | Soybean plant response rating (soybean; [8]): 0 | Plant response rating, Soybean (soybean; [9]): 0 | Plant response rating (scale of 0 to 100), Soybean (soybean; Preemergence, 250 g ai/ha): 0 | Plant response rating, Morningglory (morningglory; [3]): 5 | Plant response rating, Morningglory (morningglory; [4]): 5 | Plant response rating, Morningglory (morningglory; [5]): 5 | Plant response rating, Morningglory (morningglory; [6]): 20 | Morningglory plant response rating (morningglory; [7]): 0 | Morningglory plant response rating (morningglory; [8]): 0 | Plant response rating, Morningglory (morningglory; [9]): 0 | Plant response rating (scale of 0 to 100), Morningglory (morningglory; Preemergence, 250 g ai/ha): 0 | Plant response rating, Johnsongrass (johnsongrass; [3]): 0 | Plant response rating, Johnsongrass (johnsongrass; [4]): 0 | Plant response rating, Johnsongrass (johnsongrass; [5]): 0 | Plant response rating, Johnsongrass (johnsongrass; [6]): 0 | Johnsongrass plant response rating (johnsongrass; [7]): 0 | Johnsongrass plant response rating (johnsongrass; [8]): 0 | Plant response rating, Johnsongrass (johnsongrass; [9]): 30 | Plant response rating (scale of 0 to 100), Johnsongrass (johnsongrass; Preemergence, 250 g ai/ha): 60 | Plant response rating, Foxtail, Giant (foxtail, giant; [3]): 20 | Plant response rating, Foxtail, Giant (foxtail, giant; [4]): 0 | Plant response rating, Foxtail, Giant (foxtail, giant; [5]): 65 | Plant response rating, Foxtail, Giant (foxtail, giant; [6]): 75 | Foxtail, Giant plant response rating (foxtail, giant; [7]): 85 | Foxtail, Giant plant response rating (foxtail, giant; [8]): 90 | Plant response rating, Foxtail, Giant (foxtail, giant; [9]): 90 | Plant response rating (scale of 0 to 100), Foxtail, Giant (foxtail, giant; Preemergence, 250 g ai/ha): 98
